Test results from patent publication US9452157B2, “Pharmaceutical compositions comprising rifaximin and amino acids, preparation methods and use thereof” (ALFA WASSERMANN SPA, priority 2012, dated 2016).

What was measured:
[1] = WO 2005/044823; cited from earlier work
[2] = type: physicochemical
Description: A rifaximin amount corresponding to 200 mg was dissolved in 10 ml of a solution formed by ethanol/water 1:4 (v/v), left for two days under stirring at room temperature.
Rifaximin solubility was determined by wavelength spectrophotometry at wavelength 276 nm with a rifaximin calibration curve.

Row | Compound | water solubility [1] | Rifaximin solubility [2] [µg/mL] | solubility of rifaximin [2] [µg/mL]
1 | CO[C@H]1/C=C/O[C@@]2(C)Oc3c(C)c(O)c4c(O)c(c5c(nc6cc(C)ccn65)c4c3C2=O)NC(=O)/C(C)=C\C=C\[C@H](C)[C@H](O)[C@@H](C)[C@@H](O)[C@@H](C)[C@H](OC(C)=O)[C@@H]1C [rifaximin polymorph α] | substantially insoluble | – | –
2 | CO[C@H]1/C=C/O[C@@]2(C)Oc3c(C)c(O)c4c(O)c(c5c(nc6cc(C)ccn65)c4c3C2=O)NC(=O)/C(C)=C\C=C\[C@H](C)[C@H](O)[C@@H](C)[C@@H](O)[C@@H](C)[C@H](OC(C)=O)[C@@H]1C [Rifaximin] | – | 48 | 48
